{"source": "patent US20230390297A1", "about": "“USE OF NUCLEOTIDE SYNTHESIS INHIBITORS FOR TARGETED THERAPY IN MLL3/4 COMPASS MUTANT CANCER” (priority 2022, published 2023)", "key": {"[1]": {"test_system": "MLL4 mutant colorectal cancer cells (SW480, DLD1, HCT116, RKO)", "test": "CellTiter-Glo viability assay in MLL4 wild type and MLL4 mutant colorectal cell lines", "assay_type": "cell-based, human", "details": "72 hours; LTX 0-30 μM, Piericidin A 0-10 μM, Phenformin 0-30 mM"}, "WT and Mll3/4 KO mESCs": {"test_system": "WT and Mll3/4 KO mESCs", "test": "RNA-seq of WT and Mll3/4 KO mESCs treated with LTX -/+ HPX", "assay_type": "cell-based, mouse", "details": "48 hours", "procedure": "(§1) FIG. 3. […] (A) WT and Mll3/4 KO cells were treated with 0-2.5 μM lometrexol (LTX)−/+50 hypoxanthine (HPX) for 48 hours. CellTiter-Glo® luminescent cell viability assay was performed to determine the percentage of inhibition under these conditions. (B) WT and KO cells were treated with 0.3 μM LTX−/+50 μM HPX for 48 hours, and cells were harvested for RNA-seq. Differential gene expression analyses were performed with indicated comparisons. (C) Principal component analysis of RNA-seq in (B). (D) Hierarchical clustering heatmap showing differentially expressed genes in KO cells in comparison with WT cells.\n(§2) FIG. 10. Mll3/4 KO mESCs are more sensitive to purine synthesis inhibition. (A-B) WT and Mll3/4 KO cells were treated with 0-2.5 μM lometrexol (LTX) (A) or 0-5 methotrexate (MTX) (B) for 48 hours. CellTiter-Glo® luminescent cell viability assay was performed to determine the percentage of inhibition under these conditions with three different Mll3/4 KO clones included. (C) WT and Mll3/4 KO cells were treated with 0-40 μM SHIINI for 48 hours. MTT cell viability assay was performed to determine the percentage of inhibition under these conditions with three different Mll3/4 KO clones included.\nGene count tables were constructed using HTseq (56) with Ensembl gene annotations and used as input for edgeR 3.0.8 (57). Genes with Benjamini-Hochburg adjusted p-values less than were differentially expressed. Batch effects were removed using ComB at-seq on the raw read counts (58). Pathway analysis was performed with Metascape (59)."}, "MLL3/4 ΔSET cells": {"test_system": "MLL3/4 ΔSET cells", "test": "CellTiter-Glo viability assay in WT, MLL3/4 ΔSET and MLL3/4 KO cells", "assay_type": "cell-based, mouse", "details": "0-2.5 μM LTX, 72 hours", "from_the_text": "FIG. 11. […] (A) Western blot showing MLL4, MLL3, NCOA6, UTX, RbBP5 and ASH2L protein levels in WT, MLL3/4 ASET and MLL3/4 KO cells with Hsp90 as the loading control. Bulk levels of histone H3K4me1, H3K4me2, H3K4me3 and H3K27Ac were also shown. N, N-terminus; C, C-terminus. mESCs harboring deletion of the SET domains of both MLL3 and MLL4 (referred to as MLL3/4 ΔSET) were generated in our previous studies (20). (B) Western blot showing nuclear and cytoplasmic MLL4, UTX, NCOA6 and RBBP5 protein levels after cell fractionation, with MLL1 and Hsp90 serving as nuclear and cytoplasmic loading control. (C) WT, MLL3/4 ΔSET and MLL3/4 KO cells were treated with 0-2.5 μM lometrexol (LTX) for 72 hours. CellTiter-Glo® luminescent cell viability assay was performed to determine the percentage of inhibition."}, "Mll3/4 KO mESCs": {"test_system": "Mll3/4 KO mESCs", "test": "CellTiter-Glo luminescent cell viability assay in WT and Mll3/4 KO mESCs", "assay_type": "cell-based, mouse", "details": "48 hours", "procedure": "as §1, §2"}, "HT55 (MLL4 WT) xenograft": {"test_system": "HT55 (MLL4 WT) xenograft", "test": "HT55 subcutaneous xenograft in nude mice", "assay_type": "in vivo", "procedure": "FIG. 20. Lometrexol application in MLL4 mutant tumors in the xenograft mouse models. (A-D) Tumor development after inoculation of 4×10^6 of HT55 cells into the nude mice. Mice with HT55 subcutaneous (sc) tumor were either treated with vehicle (DMSO, n=9) or LTX (15 mg/kg, n=9) daily for 7 days. (A) Growth plots for sc tumors in each treatment group were shown. Tumor volumes (mm3) show mean and upper SD. (B) Dot plot representation of sc tumor volume in mice at day 18 post-tumor cell injection. […] (C) Photographs of nude mice (upper) and sc tumor taken from these mice (lower) in which HT55 cells were inoculated into the right flank. (D) Animal survival at the indicated days after inoculation. Log-rank test was used for comparisons between DMSO and LTX treatment. (E-H) Tumor development after inoculation of 4×10^6 of HCT116 cells into the nude mice. […]\nSix-week-old female athymic mice (nu/nu genotype, BALB/c background) were purchased from Envigo (Indianapolis, IN, USA) and housed under aseptic conditions. […] The tumor sizes were measured on alternate days and the mice were euthanized when the tumor size reached 1000 mm^3. […]\nFor in vivo study, the Kaplan-Meier estimator and Prism software were used to generate and analyze survival plots. Differences between survival plots were calculated using a log-rank test. […]"}}}
{"smiles": "Nc1nc2c(c(=O)[nH]1)C[C@@H](CCc1ccc(C(=O)N[C@@H](CCC(=O)O)C(=O)O)cc1)CN2", "note": "[lometrexol, (2S)-2-[[4-[2-[(6R)-2-amino-4-oxo-5,6,7,8-tetrahydro-3H-pyrido[2,3-d]pyrimidin-6-yl]ethyl]benzoyl]amino]pentanedioic acid]", "values": [{"measurement": "sensitivity of MLL4 mutant cells compared with MLL4 wild type cells (growth inhibition)", "setting": "[1]", "value": "selectively more sensitive"}, {"measurement": "gene expression change in WT and Mll3/4 KO cells", "setting": "WT and Mll3/4 KO mESCs; 0.3 μM LTX or 50 μM HPX alone, LTX effect almost completely rescued by HPX", "value": "induced significant gene expression change"}, {"measurement": "genes commonly downregulated in WT and KO cells", "setting": "WT and Mll3/4 KO mESCs; 0.3 μM LTX", "value": 1063, "unit": "genes"}, {"measurement": "genes commonly upregulated in WT and KO cells", "setting": "WT and Mll3/4 KO mESCs; 0.3 μM LTX", "value": 1195, "unit": "genes"}, {"measurement": "sensitivity of MLL3/4 ΔSET cells compared with WT mESCs (percentage of inhibition)", "setting": "MLL3/4 ΔSET cells", "value": "indistinguishable sensitivity to LTX in comparison to WT mESCs"}, {"measurement": "sensitivity of Mll3/4 KO cells compared with WT cells (percentage of inhibition of viability)", "setting": "Mll3/4 KO mESCs; LTX 0-2.5 μM, MTX 0-5, three Mll3/4 KO clones", "value": "elevated sensitivity to LTX in Mll3/4 KO cells"}, {"measurement": "rescue of cell growth and/or viability inhibition by hypoxanthine", "setting": "Mll3/4 KO mESCs; LTX 0-2.5 μM + 50 hypoxanthine (HPX)", "value": "completely rescued by HPX"}, {"measurement": "sc tumor volume at day 18 post-tumor cell injection, DMSO vs LTX (unpaired t-test)", "setting": "HT55 (MLL4 WT) xenograft; LTX 15 mg/kg daily for 7 days", "value": "not statistically significant"}, {"measurement": "tumor growth", "setting": "HT55 (MLL4 WT) xenograft; LTX 15 mg/kg daily for 7 days vs DMSO", "value": "almost completely resistant to LTX"}]}
